Experimental data published in a melting point compilation (Tetko et al.; mined from patent text by program, amines drawn as free bases though some values may be those of a salt).

| Compound | melting point [°C] |
| --- | --- |
| CCOC(=O)c1ccc(OCC2CCCCC2)c([N+](=O)[O-])c1 | 79 to 80 |
| CCOC(=O)c1cnn(-c2ccccn2)c1Cl | 50 to 51 |
| CNC(=O)Cc1c(F)cccc1F | 163 to 164 |
| CCCCCCCCCCCCCCOc1cc(OCCCCCCc2cccc(OCc3ccccc3)c2OCc2ccccc2)cc(C(=O)OC)c1 | 56 to 58 |
| Cc1nc(S(=O)(=O)Cc2ccccc2)nc(C)c1Br | 138 to 139 |
| Cc1ccc(C)c(Oc2noc(=O)n2S(=O)(=O)N(C)C)c1 | 101 to 103 |
| COc1cnc(Cl)n2nc(N)nc12 | 251 |
| COc1ccc2c(c1OC)OC(C)(C)CC2=O | 75 to 76 |
| CC1CN(c2c(F)c(N)c3c(=O)c(C(=O)O)cn(C4CC4)c3c2OC(F)F)CCN1 (stereo not given) | 283 to 286 |
| CCCCCCCCCCCCOc1cc(N)c(OCCCCCCCCCCCC)cc1N | 75 to 76 |
| OC(CCSc1cccc2ccccc12)CCc1cccnc1 (stereo not given) | 58 to 59 |
| COc1cc(CCNC(=O)N(C)O)cc(OC)c1OC | 100 to 102 |
| CCCc1[nH]c(C(=O)OCC)c(C)c1CCC | 84 to 87 |
| COCOc1c(OC)cc(C=O)cc1OC | 52 to 53 |
| CC(C)(C)NN=C(O)C(=O)c1ccccc1 | 138 to 139 |
| CCCC(=Cc1ccccc1)CN1CCc2nc(N)sc2CC1 | 77 to 80 |
| CCCCCCCCCCCC(=O)c1c[nH]c(C(=O)OC)c1 | 102 to 103 |
| COc1cc2ccccc2cc1O | 108 to 109 |
| C=CCn1c(=O)c2c(nc(/C=C/c3ccc(O)c(OC)c3)n2C)n(CC=C)c1=O | 202 to 203 |
| CCOC(=O)c1cc2c3n(ccc-2n1)CC(C(C)(C)C)=N3 | 276 to 278 |
| CC(C)(C)OC(=O)c1ccc(C(=O)NS(=O)(=O)c2ccccc2)cc1 | 141 to 143 |
| CSc1ncncc1C1c2c(F)cccc2CC1(C)C (stereo not given) | 81 to 82 |
| COC=C(C(=O)OC)c1ccccc1Oc1ncnc(F)c1Cl | 102 |
| O=C(N[C@@H](Cc1ccccc1)[C@@H](O)[C@H](O)[C@H](Cc1ccccc1)NC(=O)OCc1ccccc1)OCc1ccccc1 | 215 to 216 |
| OCCN1C2C=C(c3ccc4ccccc4c3)CC1CC2 (stereo not given) | 113 to 114 |
| COc1cccc(CCNC(=O)c2ccc3c(c2)C=CC(C)(C)O3)c1 | 105 to 110 |
| Cc1c(S(=O)(=O)C[N+](=O)[O-])cc2c(c1C)OC(C)(C)CC2 | 98.5 to 99.5 |
| CC(=O)CC(C)(C)Cn1c(C)nc2c(N)nc3ccccc3c21 | 223 to 225 |

| Compound | melting point [°C] |
| --- | --- |
| CCC(=O)N(C)Cc1cccc2c1C(=O)N(C1CCC(=O)NC1=O)C2=O (stereo not given) | 206 to 208 |
| Cc1cn([C@H]2CC[C@@H]3CC(=O)N[C@H]2C3)c(=O)n(COCc2ccccc2)c1=O | 160 to 162 |
| CO/N=C(\C(=O)OC)c1nsc(NC(=O)OC)n1 | 158 to 161 |
| O=C(CCCCCCC(=O)N1CCN(CCc2ccc3ccccc3c2)CC1)NO | 118 to 120 |
| C=C(C)c1c(OC)cc(Cc2cnc(N)nc2N)cc1OC | 228 to 229 |
| COc1nc2nc(S(=O)(=O)Cl)nn2cc1C | 154 to 157 |
| COCC(COC)Oc1ccc(C#CC2(O)CN3CCC2CC3)cc1 (stereo not given) | 125 to 127 |
| CC1(C)CC(N(CCO)c2c([O-])[c+](N(CCO)C3CC(C)(C)NC(C)(C)C3)[c+]2[O-])CC(C)(C)N1 | 309 to 311 |
| Cc1c(C)n(CCF)c2c(OCc3ccccc3)nncc12 | 106 to 107 |
| Cc1cccc2c1C1=C(CC2)NC(=O)CC1 | 168 to 169 |
| CC1=CC(C)(C)N2C(=O)C(=O)c3cc(C)cc1c32 | 157 to 161 |
| COc1ccc(OC)c(C=CC#N)c1 | 70 to 71 |
| CCOC(=O)C(=O)Nc1ccc(Br)cc1[N+](=O)[O-] | 168 to 169 |
| CC(C)CC1(C(C)C(=O)NO)CCN(CCc2ccccc2)C1=O (stereo not given) | 107 to 108 |
| COC(=O)c1ncn(C2OC(COC(C)=O)C(OC(C)=O)C2OC(C)=O)n1 (stereo not given) | 107 to 109 |
| CC(C)(C)OC(=O)c1ncn2c1CN(C(=O)N1CCCC1)c1c(F)cccc1-2 | 214 |
| COCn1c(-c2nc3c(OC)ccc(N4CCOCC4)c3s2)nc2ccc(N3CCC(O)CC3)nc21 | 120 to 130 |
| Cc1ccc(S(=O)(=O)NC(CCCCNC(=O)OCc2ccccc2)C(=O)O)cc1 (stereo not given) | 120 to 121 |
| CCOC(=O)Cc1ccc(OCCCCl)c(OC)c1 | 36 to 38 |
| CCNc1cc(-c2c[nH]c(C)n2)ccn1 | 214 to 216 |
| CCCCN1CSC(=S)N(Cc2ccncc2)C1 | 75 to 80 |
| Oc1ccc(C2(c3ccc(O)cc3)c3ccccc3-c3ccccc32)cc1 | 215 |
| CC1(O)C=CC2C3CCC4=CC(=O)CCC4C3C(c3ccc(-c4ccoc4)cc3)CC21C (stereo not given) | 179 |
| CC(=O)NC1CCC(N2CCNC2=O)CC1 (stereo not given) | 211 to 230 |
| CCOC(=O)c1c(CN(CCC(C)C)CCC(C)C)nc2cc(OC)c(OC)cc2c1-c1ccc(OC)c(OC)c1 | 114 to 115 |
| CCCCc1nc2cncnc2[nH]1 | 168 |
| CNC(=O)[C@H](Cc1ccc(OC)cc1)NC(=O)[C@H](CC(C)C)N[C@H](CCC(=O)NCc1ccccc1)C(=O)O | 104 to 108 |

Next, values leading:

| melting point [°C] | Compound |
| --- | --- |
| 144 to 146 | N=C(NO)c1ccc(OCCCOc2c(Cl)cc(OCC=C(Cl)Cl)cc2Cl)cc1 |
| 205 to 207 | O=C(Cc1c[nH]c2ccccc12)Nc1ccccc1C(=O)O |
| 214 | Cc1cc(C)c2nc(CCCCl)n(-c3ccc(C(C(=O)O)C4CCCC4)cc3)c2n1 (stereo not given) |
| 134 to 135 | COC(=O)c1ccc(COc2ccc(-c3ncccc3S(=O)(=O)N(C(=O)OCC(C)C)c3ncc(C)nc3OC)cc2)cc1 |
| 152 to 155 | O=C1C2=C(CCCC2)C(=O)N1c1cc([N+](=O)[O-])c(Cl)cc1F |
| 99 to 101 | CCOc1nn(-c2ccccn2)cc1CCCOc1cccc(OC(C)(C)C(=O)O)c1 |
| 67.4 to 68 | COCCCOc1ccc(CCCOC(=O)NS(=O)(=O)NCCOC(C)C)c(Oc2ncc(C(F)(F)F)cc2Cl)c1 |
| 239 to 241 | COc1cc2c(cc1OC)-c1cc(Nc3ccc(C)cc3C)nc(=O)n1CC2 |
| 195 to 197 | COc1cc(NC(=O)C#Cc2ccc(C(F)(F)F)cc2Cl)ccc1OCCN1CCC(OC)CC1 |
| > 300 | O=C1Cc2c([nH]c3ccc(Br)cc23)-c2ccccc2N1 |
| 131 to 132 | CNC(=O)C(=O)CCCCCCSc1ccc(-c2ccccc2)cc1 |
| 159 to 160 | CC(C)(C)OC(=O)N1CCc2c(cccc2C(=O)c2cc(Cl)ccc2N)C1 |
| 149 | CCN1c2ncc(CCc3ccnc(C(=O)OC)c3)cc2C(=O)N(C)c2ccc(Cl)nc21 |
| 178 | Cc1nc2c3c(ccc2n1C1CC1)C(=O)[C@H](O)[C@@H](c1ccccc1)O3 |
| 65 to 73 | Cc1ccc2c(c1)S(=O)CC(COC(=O)Nc1ccccc1)(COC(=O)Nc1ccccc1)C2=O (stereo not given) |
| 210 to 211 | O=C(O)c1ccc([N+](=O)[O-])cn1 |
| 113 to 114 | O=C1OC2(C=Cc3ccccc3O2)c2ccccc21 (stereo not given) |
| 219 to 220 | Cc1nc(-c2nc(=O)c3ccccc3s2)cs1 |
| 186 to 188 | c1ccc2c(c1)Nc1cc(-c3csc(CN4CCCCC4)n3)ccc1S2 |
| 225 to 226 | Cc1oc(-c2ccccc2)nc1COc1ccc(C=C2SC(=O)NC2=O)cn1 |
| 190 to 193 | O=C(O)Cc1c(C(=O)c2ccccc2)[nH]c2c(Cl)cccc12 |
| 136 to 137 | Cc1on(C(=O)N(c2ccc(Cl)cc2)C(C)C)c(=O)c1Cl |
| 77 to 80 | CCCOc1cc(CCCOc2c(CC(=O)O)cccc2OC)n(Cc2ccc(F)cc2F)n1 |

| melting point [°C] | Compound |
| --- | --- |
| 146 | COC(=O)C1Cc2c([nH]c3ccccc23)C(c2cccc(OC)c2)N1 (stereo not given) |
| 212 to 215 | Cc1cccc(NC(=O)N(C)Cc2cccc3c2C(=O)N(C2CCC(=O)NC2=O)C3=O)c1 (stereo not given) |
| 105 to 107 | Cc1noc(NS(=O)(=O)c2sccc2-c2ccccc2)c1Br |
| 98 to 100 | N#Cn1c(-c2ccc(Cl)cc2)c([N+](=O)[O-])c(-c2ccc(Cl)c(Cl)c2)c1C(F)(F)F |
| 188 to 190 | CCCN1CC(c2cccc(F)c2)=C(c2ccc(S(N)(=O)=O)cc2)C1=O |
| 250 to 251 | O=C1COc2cc(Oc3ccc(O)cc3)ccc2N1 |
| 120 to 123 | CC(C)OC(=O)c1cc(-n2nc3ccc(Cl)cn3c2=O)c(F)cc1Cl |
| 111 to 112 | C=CCNC(=O)C(C)=Cc1cc([N+](=O)[O-])ccc1Cl |
| 202 to 204 | NC(=O)c1nnn(Cc2ccc(Sc3ccc(Cl)cc3)c(Cl)c2)c1N |
| 61 to 64 | COC(=O)C(C)Oc1cc(Cl)ccc1COc1ccc(-c2nn(C)c(OC(F)F)c2Cl)cc1 (stereo not given) |
| 159 to 161 | CC(C)(C(=O)O)c1cn2nc(Cl)ccc2n1 |
| 129 to 131 | Cc1c(CC(=O)OCCO)cc(-c2ccc(S(C)(=O)=O)cc2)n1-c1ccc(F)cc1 |
| 177 to 178 | C[C@@H]1CN(C(=O)[C@@](C)(O)C(F)(F)F)[C@@H](C)CN1C(=O)c1ccc(F)cc1 |
| 227 to 229 | O=C(Nc1ccccc1)c1cc(Oc2ccc3c(c2)CCN3C(=O)Nc2cccc(C(F)(F)F)c2)ncn1 |
| 251 | CC1(C)c2ccccc2-c2ccc(C3c4ccc(-c5ccc(-c6ccc(C=C(C#N)C(=O)O)s6)s5)c5c4C(CCC5)N3c3ccccc3)cc21 (stereo not given) |
| 133 | COC(=O)c1scc(-c2ccccc2)c1-c1ccc(S(=O)O)c(F)c1 |
| 282 to 284 | N#Cc1cccc(CN2CCc3sc(Nc4ncc(F)cn4)nc3-c3cn[nH]c32)c1 |
| 121 to 122 | OCC(O)c1cccc(OCc2ccc3ccccc3c2)c1 (stereo not given) |
| 82 to 83 | O=C(CCCCCCOc1ccc(OCc2ccccc2)cc1)C(F)(F)F |
| 70 to 72 | Cc1ccc(S(=O)(=O)N(CCBr)c2ccc(Cl)cc2[N+](=O)[O-])cc1 |
| 145 | Cn1cc(-c2ccccc2)c(=O)c(-c2ccccc2Cl)c1 |
| 190 to 191 | COc1ccc(S(=O)(=O)N2C(=O)C(O[Si](C)(C)C)(c3ccccc3OC)c3cc(Cl)c(C)cc32)c(OC)c1 (stereo not given) |
